Assays:
late watergrass = experiment: Test Example 2: herbicidal activity, application during weed generation under submerged conditions (Table 17, symbol A); format: in vivo, late watergrass (Echinochloa oryzicola); settings: AAH 320 g/ha; application during weed generation, submerged conditions
Outline: (§1)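 3-wk visual-criteria score after one water-surface dose. Emulsion formulation, water-diluted to set rate; applied at 1–2 leaf stage; alluvial soil, 4 cm standing water; seeds co-sown; greenhouse 25–30° C.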

Japanese bulrush = experiment: Test Example 2: herbicidal activity, application during weed generation under submerged conditions (Table 17, symbol B); format: in vivo, Japanese bulrush (Schoenoplectus juncoides); settings: AAH 320 g/ha; application during weed generation, submerged conditions
Outline: as §1

oval-leafed pondweed = experiment: Test Example 2: herbicidal activity, application during weed generation under submerged conditions (Table 17, symbol C); format: in vivo, oval-leafed pondweed (Monochoria vaginalis); settings: AAH 320 g/ha; application during weed generation, submerged conditions
Outline: as §1

barnyard grass [1] = experiment: Test Example 3: herbicidal effect by foliage application, Wagner pot (Table 18, symbol H); format: in vivo, barnyard grass (Echinochloa crus-galli); settings: 320 g/ha
Outline: (§2)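 Plants were sown in alluvial soil held under 0.1–0.5 cm standing water and grown 14 days in a greenhouse at 25–30 °C. An emulsifiable formulation, water-diluted to the set dose, was then sprayed onto the foliage, and effects were scored three weeks later using previously defined criteria.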

Chinese sprangletop = experiment: Test Example 3: herbicidal effect by foliage application, Wagner pot (Table 18, symbol D); format: in vivo, chinese sprangletop (Leptochloa chinensis); settings: 320 g/ha
Outline: as §2

rice flat sedge = experiment: Test Example 3: herbicidal effect by foliage application, Wagner pot (Table 18, symbol E); format: in vivo, rice flat sedge (Cyperus iria); settings: 320 g/ha
Outline: as §2

southern crabgrass [2] = experiment: Test Example 4: herbicidal effect by soil treatment (Table 19, symbol F); format: in vivo, southern crabgrass (Digitaria ciliaris); settings: amount of applied herbicide 320 g/ha
Outline: (§3)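 Seeds were sown in sterilized diluvial soil and covered with about 1.5 cm of soil. An emulsion formulation diluted with water to a predetermined herbicide amount was sprayed evenly onto the soil surface. Plants grew in a greenhouse at 25° C. to 30° C., and the effect was scored three weeks after application using criteria from an earlier test.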

green foxtail [3] = experiment: Test Example 4: herbicidal effect by soil treatment (Table 19, symbol G); format: in vivo, green foxtail (Setaria viridis); settings: amount of applied herbicide 320 g/ha
Outline: as §3

barnyard grass [4] = experiment: Test Example 4: herbicidal effect by soil treatment (Table 19, symbol H); format: in vivo, barnyard grass (Echinochloa crus-galli); settings: amount of applied herbicide 320 g/ha
Outline: as §3

wild oat [5] = experiment: Test Example 4: herbicidal effect by soil treatment (Table 19, symbol I); format: in vivo, wild oat (Avena fatua); settings: amount of applied herbicide 320 g/ha
Outline: as §3

blackgrass [6] = experiment: Test Example 4: herbicidal effect by soil treatment (Table 19, symbol J); format: in vivo, blackgrass (Alopecurus myosuroides); settings: amount of applied herbicide 320 g/ha
Outline: as §3

Italian ryegrass [7] = experiment: Test Example 4: herbicidal effect by soil treatment (Table 19, symbol K); format: in vivo, Italian ryegrass (Lolium multiflorum); settings: amount of applied herbicide 320 g/ha
Outline: as §3

windgrass [8] = experiment: Test Example 4: herbicidal effect by soil treatment (Table 19, symbol L); format: in vivo, windgrass (Apera spica-venti); settings: amount of applied herbicide 320 g/ha
Outline: as §3

velvetleaf [9] = experiment: Test Example 4: herbicidal effect by soil treatment (Table 19, symbol M); format: in vivo, velvetleaf (Abutilon theophrasti); settings: amount of applied herbicide 320 g/ha
Outline: as §3

redroot pigweed [10] = experiment: Test Example 4: herbicidal effect by soil treatment (Table 19, symbol N); format: in vivo, redroot pigweed (Amaranthus retroflexus); settings: amount of applied herbicide 320 g/ha
Outline: as §3

lambsquarters [11] = experiment: Test Example 4: herbicidal effect by soil treatment (Table 19, symbol O); format: in vivo, lambsquarters (Chenopodium album); settings: amount of applied herbicide 320 g/ha
Outline: as §3

chickweed [12] = experiment: Test Example 4: herbicidal effect by soil treatment (Table 19, symbol P); format: in vivo, common chickweed (Stellaria media); settings: amount of applied herbicide 320 g/ha
Outline: as §3

false cleavers [13] = experiment: Test Example 4: herbicidal effect by soil treatment (Table 19, symbol Q); format: in vivo, false cleavers (Galium spurium); settings: amount of applied herbicide 320 g/ha
Outline: as §3

persian speedwell [14] = experiment: Test Example 4: herbicidal effect by soil treatment (Table 19, symbol R); format: in vivo, Persian speedwell (Veronica persica); settings: amount of applied herbicide 320 g/ha
Outline: as §3

southern crabgrass [15] = experiment: Test Example 5: herbicidal effect by foliage application, plastic box (Table 20, symbol F); format: in vivo, southern crabgrass (Digitaria ciliaris); settings: foliage application, 320 g/ha, evaluated three weeks after application
Outline: (§4)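 Plants sown in sterilized diluvial soil and grown 14 days in a greenhouse at 25° C to 30° C, then sprayed on the foliage with the compound's emulsion diluted in water to a predetermined herbicide amount. Injury to weeds and crops scored three weeks after application on a visual rating scale.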

green foxtail [16] = experiment: Test Example 5: herbicidal effect by foliage application, plastic box (Table 20, symbol G); format: in vivo, green foxtail (Setaria viridis); settings: foliage application, 320 g/ha, evaluated three weeks after application
Outline: as §4

barnyard grass [17] = experiment: Test Example 5: herbicidal effect by foliage application, plastic box (Table 20, symbol H); format: in vivo, barnyard grass (Echinochloa crus-galli); settings: foliage application, 320 g/ha, evaluated three weeks after application
Outline: as §4

wild oat [18] = experiment: Test Example 5: herbicidal effect by foliage application, plastic box (Table 20, symbol I); format: in vivo, wild oat (Avena fatua); settings: foliage application, 320 g/ha, evaluated three weeks after application
Outline: as §4

blackgrass [19] = experiment: Test Example 5: herbicidal effect by foliage application, plastic box (Table 20, symbol J); format: in vivo, blackgrass (Alopecurus myosuroides); settings: foliage application, 320 g/ha, evaluated three weeks after application
Outline: as §4

Italian ryegrass [20] = experiment: Test Example 5: herbicidal effect by foliage application, plastic box (Table 20, symbol K); format: in vivo, Italian ryegrass (Lolium multiflorum); settings: foliage application, 320 g/ha, evaluated three weeks after application
Outline: as §4

windgrass [21] = experiment: Test Example 5: herbicidal effect by foliage application, plastic box (Table 20, symbol L); format: in vivo, windgrass (Apera spica-venti); settings: foliage application, 320 g/ha, evaluated three weeks after application
Outline: as §4

velvetleaf [22] = experiment: Test Example 5: herbicidal effect by foliage application, plastic box (Table 20, symbol M); format: in vivo, velvetleaf (Abutilon theophrasti); settings: foliage application, 320 g/ha, evaluated three weeks after application
Outline: as §4

redroot pigweed [23] = experiment: Test Example 5: herbicidal effect by foliage application, plastic box (Table 20, symbol N); format: in vivo, redroot pigweed (Amaranthus retroflexus); settings: foliage application, 320 g/ha, evaluated three weeks after application
Outline: as §4

lambsquarters [24] = experiment: Test Example 5: herbicidal effect by foliage application, plastic box (Table 20, symbol O); format: in vivo, lambsquarters (Chenopodium album); settings: foliage application, 320 g/ha, evaluated three weeks after application
Outline: as §4

chickweed [25] = experiment: Test Example 5: herbicidal effect by foliage application, plastic box (Table 20, symbol P); format: in vivo, common chickweed (Stellaria media); settings: foliage application, 320 g/ha, evaluated three weeks after application
Outline: as §4

false cleavers [26] = experiment: Test Example 5: herbicidal effect by foliage application, plastic box (Table 20, symbol Q); format: in vivo, false cleavers (Galium spurium); settings: foliage application, 320 g/ha, evaluated three weeks after application
Outline: as §4

persian speedwell [27] = experiment: Test Example 5: herbicidal effect by foliage application, plastic box (Table 20, symbol R); format: in vivo, Persian speedwell (Veronica persica); settings: foliage application, 320 g/ha, evaluated three weeks after application
Outline: as §4

CCCC(=O)Oc1c(C)nn(C)c(=O)c1-c1c(-c2ccc(OC(C)C)cc2)sc2ccc(Cl)cc12 [2-108]
herbicidal effect rating, A: late watergrass (late watergrass): 3 (Herbicidal rate of 40% or more and less than 70%) | herbicidal effect rating, B: Japanese bulrush (Japanese bulrush): 0 (Herbicidal rate of 5% or less (almost no effect)) | herbicidal effect rating, C: oval-leafed pondweed (oval-leafed pondweed): 0 (Herbicidal rate of 5% or less (almost no effect)) | herbicidal effect on H (barnyard grass), rating 0-5 (barnyard grass [1]): 4 (Herbicidal rate of 70% or more and less than 90%) | herbicidal effect on D (Chinese sprangletop), rating 0-5 (Chinese sprangletop): 0 (Herbicidal rate of 5% or less (almost no effect)) | herbicidal effect on E (rice flat sedge), rating 0-5 (rice flat sedge): 2 (Herbicidal rate of 20% or more and less than 40%) | F: southern crabgrass, herbicidal effect rating (southern crabgrass [2]): 0 (Herbicidal rate of 5% or less (almost no effect)) | G: green foxtail, herbicidal effect rating (green foxtail [3]): 0 (Herbicidal rate of 5% or less (almost no effect)) | H: barnyard grass, herbicidal effect rating (barnyard grass [4]): 0 (Herbicidal rate of 5% or less (almost no effect)) | I: wild oat, herbicidal effect rating (wild oat [5]): 0 (Herbicidal rate of 5% or less (almost no effect)) | J: blackgrass, herbicidal effect rating (blackgrass [6]): 0 (Herbicidal rate of 5% or less (almost no effect)) | K: Italian ryegrass, herbicidal effect rating (Italian ryegrass [7]): 0 (Herbicidal rate of 5% or less (almost no effect)) | L: windgrass, herbicidal effect rating (windgrass [8]): 0 (Herbicidal rate of 5% or less (almost no effect)) | M: velvetleaf, herbicidal effect rating (velvetleaf [9]): 0 (Herbicidal rate of 5% or less (almost no effect)) | N: redroot pigweed, herbicidal effect rating (redroot pigweed [10]): 0 (Herbicidal rate of 5% or less (almost no effect)) | O: lambsquarters, herbicidal effect rating (lambsquarters [11]): 0 (Herbicidal rate of 5% or less (almost no effect)) | P: chickweed, herbicidal effect rating (chickweed [12]): 0 (Herbicidal rate of 5% or less (almost no effect)) | Q: false cleavers, herbicidal effect rating (false cleavers [13]): 0 (Herbicidal rate of 5% or less (almost no effect)) | R: persian speedwell, herbicidal effect rating (persian speedwell [14]): 4 (Herbicidal rate of 70% or more and less than 90%) | herbicidal effect on F: southern crabgrass (southern crabgrass [15]): 0 (Herbicidal rate of 5% or less (almost no effect)) | herbicidal effect on G: green foxtail (green foxtail [16]): 0 (Herbicidal rate of 5% or less (almost no effect)) | herbicidal effect on H: barnyard grass (barnyard grass [17]): 0 (Herbicidal rate of 5% or less (almost no effect)) | herbicidal effect on I: wild oat (wild oat [18]): 0 (Herbicidal rate of 5% or less (almost no effect)) | herbicidal effect on J: blackgrass (blackgrass [19]): 0 (Herbicidal rate of 5% or less (almost no effect)) | herbicidal effect on K: Italian ryegrass (Italian ryegrass [20]): 0 (Herbicidal rate of 5% or less (almost no effect)) | herbicidal effect on L: windgrass (windgrass [21]): 0 (Herbicidal rate of 5% or less (almost no effect)) | herbicidal effect on M: velvetleaf (velvetleaf [22]): 2 (Herbicidal rate of 20% or more and less than 40%) | herbicidal effect on N: redroot pigweed (redroot pigweed [23]): 3 (Herbicidal rate of 40% or more and less than 70%) | herbicidal effect on O: lambsquarters (lambsquarters [24]): 1 (Herbicidal rate of 5% or more and less than 20%) | herbicidal effect on P: chickweed (chickweed [25]): 4 (Herbicidal rate of 70% or more and less than 90%) | herbicidal effect on Q: false cleavers (false cleavers [26]): 0 (Herbicidal rate of 5% or less (almost no effect)) | herbicidal effect on R: persian speedwell (persian speedwell [27]): 5 (Herbicidal rate of 90% or more (almost completely withered))
